Measurements reported in PubChem BioAssay AID248 (DTP/NCI, 2004).
Where “and” joins values, the source holds several entries; their conditions need not be identical. Identical values can stand only once. Toxic doses and inconclusive results are not listed. Cut-off read from the data, not from the text of the source: active = T/C of 150% or more; inactive = T/C below 125%.

Test system: L1210 leukemia ip in BDF1 mice, survival T/C
Assay: NCI In Vivo Anticancer Drug Screen. Data for tumor model L1210 Leukemia (intraperitoneal) in B6D2F1 (BDF1) mice
Conditions: endpoint: mean survival time, higher = longer survival
Method in brief: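 Antitumor effect is assessed in tumor-bearing animals. Survival in the compound arm is compared with a vehicle-dosed control arm and expressed as their quotient.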

[1] = dose: 100.0 mg/kg/injection, schedule: Q01DX001 (ip), vehicle: other
[2] = dose: 100.0 mg/kg/injection, schedule: Q04DX002 (ip), vehicle: saline with Tween-80
[3] = dose: 100.0 mg/kg/injection, schedule: Q04DX003 (ip), vehicle: saline with Tween-80
[4] = dose: 200.0 mg/kg/injection, schedule: Q01DX001 (ip), vehicle: other
[5] = dose: 200.0 mg/kg/injection, schedule: Q04DX002 (ip), vehicle: saline with Tween-80
[6] = dose: 200.0 mg/kg/injection, schedule: Q04DX003 (ip), vehicle: saline with Tween-80
[7] = dose: 400.0 mg/kg/injection, schedule: Q04DX003 (ip), vehicle: saline with Tween-80
[8] = dose: 100.0 mg/kg/injection, schedule: Q04DX003 (ip), vehicle: Klucel (hydroxypropylcellulose) (HPC)
[9] = dose: 200.0 mg/kg/injection, schedule: Q04DX003 (ip), vehicle: Klucel (hydroxypropylcellulose) (HPC)
[10] = dose: 400.0 mg/kg/injection, schedule: Q04DX003 (ip), vehicle: Klucel (hydroxypropylcellulose) (HPC)
[11] = dose: 100.0 mg/kg/injection, schedule: Q01DX009 (ip), vehicle: Klucel (hydroxypropylcellulose) (HPC)
[12] = dose: 200.0 mg/kg/injection, schedule: Q01DX009 (ip), vehicle: Klucel (hydroxypropylcellulose) (HPC)
[13] = dose: 400.0 mg/kg/injection, schedule: Q01DX009 (ip), vehicle: Klucel (hydroxypropylcellulose) (HPC)
[14] = dose: 100.0 mg/kg/injection, schedule: Q01DX001 (ip), vehicle: Klucel (hydroxypropylcellulose) (HPC)
[15] = dose: 200.0 mg/kg/injection, schedule: Q01DX001 (ip), vehicle: Klucel (hydroxypropylcellulose) (HPC)
[16] = dose: 400.0 mg/kg/injection, schedule: Q01DX001 (ip), vehicle: Klucel (hydroxypropylcellulose) (HPC)
[17] = dose: 100.0 mg/kg/injection, schedule: Q01DX001 (ip), vehicle: carboxymethylcellulose (CMC)
[18] = dose: 200.0 mg/kg/injection, schedule: Q01DX001 (ip), vehicle: carboxymethylcellulose (CMC)
[19] = dose: 400.0 mg/kg/injection, schedule: Q01DX001 (ip), vehicle: carboxymethylcellulose (CMC)
[20] = dose: 50.0 mg/kg/injection, schedule: Q01DX001 (ip), vehicle: carboxymethylcellulose (CMC)
[21] = dose: 200.0 mg/kg/injection, schedule: Q04DX003 (ip), vehicle: saline
[22] = dose: 400.0 mg/kg/injection, schedule: Q04DX003 (ip), vehicle: saline
[23] = dose: 100.0 mg/kg/injection, schedule: Q04DX003 (ip), vehicle: saline

Measured: T/C

CCCNC(=O)Oc1ccc(SC)cc1
inactive: [1] 96 % of control | dose: 100.0 mg/kg/injection, schedule: Q01DX009 (ip), vehicle: other 94 % of control and 99 % of control | dose: 100.0 mg/kg/injection, schedule: Q04DX002 (ip), vehicle: other 93 % of control and 97 % of control | [2] 100 % of control | [3] 107 % of control | [4] 98 % of control | dose: 200.0 mg/kg/injection, schedule: Q01DX009 (ip), vehicle: other 103 % of control | dose: 200.0 mg/kg/injection, schedule: Q04DX002 (ip), vehicle: other 97 % of control and 103 % of control | [5] 113 % of control | [6] 105 % of control | dose: 400.0 mg/kg/injection, schedule: Q01DX009 (ip), vehicle: other 89 % of control | dose: 400.0 mg/kg/injection, schedule: Q04DX002 (ip), vehicle: other 108 % of control and 86 % of control | dose: 400.0 mg/kg/injection, schedule: Q04DX002 (ip), vehicle: saline with Tween-80 106 % of control | [7] 100 % of control

C[Si](C)(C)Oc1ccccc1[Si](C)(C)c1ccccc1
inactive: [8] 101 % of control | [9] 98 % of control | [10] 102 % of control

CCOC(=O)/C(Cc1n[n+]([O-])ccc1Cl)=N\N
inactive: dose: 43.75 mg/kg/injection, schedule: Q04DX002 (ip), vehicle: Klucel (hydroxypropylcellulose) (HPC) 116 % of control | dose: 87.5 mg/kg/injection, schedule: Q04DX002 (ip), vehicle: Klucel (hydroxypropylcellulose) (HPC) 101 % of control | dose: 175.0 mg/kg/injection, schedule: Q04DX002 (ip), vehicle: Klucel (hydroxypropylcellulose) (HPC) 96 % of control

Cc1ccc2[nH]c(=S)n(-c3cccc(C(F)(F)F)c3)c(=O)c2c1
inactive: [11] 96 % of control | [12] 104 % of control | [13] 100 % of control

C/C=C(/Cl)c1c(C)cc(C)c(CC(=O)O)c1C
inactive: [8] 92 % of control | dose: 130.0 mg/kg/injection, schedule: Q01DX009 (ip), vehicle: Klucel (hydroxypropylcellulose) (HPC) 110 % of control | [12] 114 % of control | [9] 90 % of control | [10] 105 % of control

O=CN/N=C/c1c[nH]c(=O)[nH]c1=O
inactive: dose: 100.0 mg/kg/injection, schedule: Q01DX001 (ip), vehicle: saline 101 % of control | dose: 200.0 mg/kg/injection, schedule: Q01DX001 (ip), vehicle: saline 106 % of control | dose: 400.0 mg/kg/injection, schedule: Q01DX001 (ip), vehicle: saline 95 % of control

C(=C1/CCCc2ccccc21)/c1ccccn1
inactive: [1] 98 % of control | [4] 103 % of control | dose: 400.0 mg/kg/injection, schedule: Q01DX001 (ip), vehicle: other 90 % of control

Cc1cn(C2C=CC(CO)O2)c(=O)[nH]c1=O (centres undefined)
inactive: dose: 100.0 mg/kg/injection, schedule: Q01DX009 (ip), vehicle: saline with Tween-80 89 % of control | dose: 400.0 mg/kg/injection, schedule: Q01DX009 (ip), vehicle: saline with Tween-80 90 % of control

O=c1cc(O)nc[nH]1
inactive: dose: 220.0 mg/kg/injection, schedule: Q01DX Z (oral), vehicle: methylcellulose (MC) 105 % of control | dose: 330.0 mg/kg/injection, schedule: Q01DX Z (oral), vehicle: methylcellulose (MC) 100 % of control | dose: 500.0 mg/kg/injection, schedule: Q01DX Z (oral), vehicle: methylcellulose (MC) 95 % of control

CC1=Nc2ccccc2SC(C)(C)C1
inactive: dose: 50.0 mg/kg/injection, schedule: Q01DX001 (ip), vehicle: Klucel (hydroxypropylcellulose) (HPC) 98 % of control | [14] 91 % of control | [15] 109 % of control | [16] 98 % of control

O=C(O)c1cccc(SSc2cccc(C(=O)O)c2)c1
inactive: [17] 94 % of control | [18] 100 % of control | [19] 102 % of control

CN1CCCCC(=N\O)/C(=N/O)CCCC1
inactive: [20] 89 % of control | [17] 89 % of control | [18] 104 % of control

CC(C)C[CH2][Pb]([CH2]CC(C)C)([CH2]CC(C)C)[O]C(=O)C(C)C
inactive: dose: 1.56 mg/kg/injection, schedule: Q01DX009 (ip), vehicle: Klucel (hydroxypropylcellulose) (HPC) 97 % of control | dose: 3.12 mg/kg/injection, schedule: Q01DX009 (ip), vehicle: Klucel (hydroxypropylcellulose) (HPC) 93 % of control | dose: 3.12 mg/kg/injection, schedule: Q04DX002 (ip), vehicle: Klucel (hydroxypropylcellulose) (HPC) 111 % of control | dose: 6.25 mg/kg/injection, schedule: Q04DX002 (ip), vehicle: Klucel (hydroxypropylcellulose) (HPC) 115 % of control

CCCCCCCC/C=C\CCCCCCCCOB(OCCCCCCCC/C=C/CCCCCCCC)OCCCCCCCC/C=C/CCCCCCCC
inactive: [20] 96 % of control | [17] 105 % of control | [18] 105 % of control | [19] 102 % of control

CCCCc1cn(C(C)=O)nn1
inactive: [2] 106 % of control | [5] 100 % of control

OCC1OC(n2ccc3c([Se])ncnc32)C(O)C1O (centres undefined)
inactive: dose: 12.5 mg/kg/injection, schedule: Q01DX005 (ip), vehicle: saline 119 % of control | dose: 25.0 mg/kg/injection, schedule: Q01DX005 (ip), vehicle: saline 122 % of control | dose: 50.0 mg/kg/injection, schedule: Q01DX005 (ip), vehicle: saline 115 % of control | dose: 100.0 mg/kg/injection, schedule: Q01DX005 (ip), vehicle: saline 122 % of control

CC(C)(C)NC(=O)C1CCCC(C(=O)NC(C)(C)C)C1 (centres undefined)
inactive: [21] 88 % of control | [22] 88 % of control

OC(CNc1ccccc1)CN1CCCC1 (centres undefined)
inactive: [23] 89 % of control | [21] 94 % of control

OC1C(O)C(O)C(O)C(O)C1O (centres undefined)
inactive: dose: 100.0 mg/kg/injection, schedule: Q01DX009 (ip), vehicle: saline 97 % of control | [3] 104 % of control | [23] 98 % of control | dose: 200.0 mg/kg/injection, schedule: Q01DX009 (ip), vehicle: saline 92 % of control | [6] 98 % of control | [21] 98 % of control | dose: 375.0 mg/kg/injection, schedule: Q01DX001 (ip), vehicle: carboxymethylcellulose (CMC) 100 % of control | dose: 400.0 mg/kg/injection, schedule: Q01DX009 (ip), vehicle: saline 97 % of control | [7] 98 % of control | [22] 107 % of control | dose: 750.0 mg/kg/injection, schedule: Q01DX001 (ip), vehicle: carboxymethylcellulose (CMC) 98 % of control | dose: 1500.0 mg/kg/injection, schedule: Q01DX001 (ip), vehicle: carboxymethylcellulose (CMC) 98 % of control

Cc1ccc(NC(=O)c2c(Cl)c(Cl)c(Cl)c(Cl)c2C(=O)O)cc1Cl
inactive: [11] 100 % of control | [8] 103 % of control | [12] 98 % of control | [9] 102 % of control | [10] 96 % of control

O=c1cc(N(Cc2ccccc2)Cc2ccccc2)[nH]c(=O)[nH]1
inactive: dose: 75.0 mg/kg/injection, schedule: Q01DX001 (ip), vehicle: Klucel (hydroxypropylcellulose) (HPC) 101 % of control | dose: 75.0 mg/kg/injection, schedule: Q01DX001 (ip), vehicle: saline with Tween-80 94 % of control | dose: 150.0 mg/kg/injection, schedule: Q01DX001 (ip), vehicle: Klucel (hydroxypropylcellulose) (HPC) 102 % of control | dose: 150.0 mg/kg/injection, schedule: Q01DX001 (ip), vehicle: saline with Tween-80 95 % of control | dose: 300.0 mg/kg/injection, schedule: Q01DX001 (ip), vehicle: Klucel (hydroxypropylcellulose) (HPC) 106 % of control | dose: 300.0 mg/kg/injection, schedule: Q01DX001 (ip), vehicle: saline with Tween-80 98 % of control

O=[N+]([O-])c1ccccc1S(=O)(=O)/C=C/c1ccccc1
inactive: [14] 96 % of control | [11] 93 % of control | [8] 100 % of control | [15] 109 % of control | [12] 100 % of control | [9] 106 % of control | [16] 96 % of control | [13] 94 % of control | [10] 101 % of control
